In patent US20180311342A1, “IMMUNOSTIMULATING AGENT” (AJINOMOTO CO., INC., priority 2017, published 2018):

Tests used:
[1] = tested on: anti-OVA-specific IgG1 subclass antibody; assay: Adjuvant activity test: anti-OVA-specific IgG1 subclass antibody in serum of OVA-immunized mice (ELISA); type: in vivo, BALB/c mice; settings: after secondary immunization, serum 2 weeks later; OVA 5 μg + compound 0.256 μmol in 5% αCD-added saline (Addavax mixed with saline at 1:1), dorsal-subcutaneous; compared to OVA single administration group
Protocol: (§1) 8-Week-old female BALB/c mice were divided into groups (N=6), and each group was primarily immunized by dorsal-subcutaneous administration of (1) ovalbumin (OVA) (5 μg) dissolved in saline as an antigen (OVA single administration group), (2) OVA 5 μg and Addavax™ (mixed with saline at 1:1) dissolved in saline (Addavax™ administration group) as positive control adjuvant, (3) OVA 5 μg and SZ137 0.256 μmol dissolved or dispersed in 5% α-cyclodextrin (hereinafter to be simply referred to as αCD)-added saline (SZ137 administration group), (4) OVA (5 μg) and SZ138 (0.256 μmol) dissolved or dispersed in 5% αCD-added saline (SZ138 administration group), (5) OVA (5 μg) and SZ142 (0.256 μmol) dissolved or dispersed in 5% αCD-added saline (SZ142 administration group), (6) OVA (5 μg) and SZ144 (0.256 μmol) dissolved or dispersed in 5% αCD-added saline (SZ144 administration group), (7) OVA (5 μg) and SZ145 (0.256 μmol) dissolved or dispersed in 5% αCD-added saline (SZ145 administration group), (8) OVA (5 μg) and SZ146 (0.256 μmol) dissolved or dispersed in 5% αCD-added saline (SZ146 administration group), (9) OVA (5 μg) and SZ147 (0.256 μmol) dissolved or dispersed in 5% αCD-added saline (SZ147 administration group), (10) OVA (5 μg) and SZ148 (0.256 μmol) dissolved or dispersed in 5% αCD-added saline (SZ148 administration group), each per mouse. Two week later, the secondary immunization was carried out by dorsal-subcutaneous administration of solutions or dispersions similar to those of the above-mentioned (1)-(10) again. Two weeks from the secondary immunization, the whole blood was extracted under anesthesia, and the obtained serum sample was measured for anti-OVA-specific IgG1 subclass antibody, anti-OVA-specific IgG2a subclass antibody, and anti-OVA-specific IgE antibody.
(§2) The measurement method of the anti-OVA-specific IgG1 subclass antibody and anti-OVA-specific IgG2a subclass antibody in Experimental Example 1 and the following Experimental Examples 2-10 is as follows.
(§3) To a 96 well plate was added 5 μg/ml OVA at 100 µl/well, and the mixture was incubated at 4° C. overnight. After incubation, the mixture was washed three times with 200 μl of PBS-T (PBS (phosphate buffered saline)+0.05% (v/v) Tween 20) per well, and blocked with 100 μl of 5% FCS (fetal calf serum)/PBS solution per well at room temperature for 1-2 hr. Thereafter, the mixture was washed three times with PBS-T (200 μl/well), a diluted serum sample (100 l/well) or the same amount of 5% FCS/PBS solution as a control was added, and the mixture was incubated at 37° C. for 1 hr. To calculate concentration of the antibody, the standard of an anti-OVA-specific IgG1 subclass antibody diluted with 2% FCS/PBS solution was added at 100 ng/ml, 50 ng/ml, 25 ng/ml, 12.5 ng/ml, 6.25 ng/ml, 3.125 ng/ml, 1.56 ng/ml, 0.781 ng/ml, 0.391 ng/ml, 0.195 ng/ml, 0.098 ng/ml, 0 ng/ml, per 1 well. When an anti-OVA-specific IgG2a subclass antibody was measured, the standard of an anti-OVA-specific IgG2a subclass antibody was added at 50 ng/ml, 25 ng/ml, 12.5 ng/ml, 6.25 ng/ml, 3.125 ng/ml, 1.56 ng/ml, 0.781 ng/ml, 0.391 ng/ml, 0.195 ng/ml, 0.098 ng/ml, 0.049 ng/ml, 0 ng/ml, per 1 well. Thereafter, similar to the samples, the mixture was washed five times with PBS-T (200 μl/well), a diluted biotinylated anti-mouse IgG1 antibody and IgG2a antibody were added (100 μl/well), and the mixture was incubated at 37° C. for 45 min. Thereafter, the mixture was washed five times with PBS-T (200 μl/well), a diluted anti-biotin-HRP antibody was added (100 μl/well), and the mixture was incubated at 37° C. for another 30 min. Thereafter, the mixture was washed five times with PBS-T (200 μl/well), TMB substrate solution was added (100 μl/well), and the mixture was incubated at room temperature for 10-15 min. Thereafter, a reaction quenching liquid (2N sulfuric acid solution) was added (50 l/well) to discontinue a color developing reaction, and the absorbance (OD Value=450 nm) was measured by a microplate reader. […]

[2] = tested on: anti-OVA-specific IgG2a subclass antibody; assay: Adjuvant activity test: anti-OVA-specific IgG2a subclass antibody in serum of OVA-immunized mice (ELISA); type: in vivo, BALB/c mice; settings: after secondary immunization, serum 2 weeks later; OVA 5 μg + compound 0.256 μmol in 5% αCD-added saline (Addavax mixed with saline at 1:1), dorsal-subcutaneous; compared to OVA single administration group
Protocol: as §1, §2, §3

Row | Structure (SMILES) | anti-OVA-specific IgG1 subclass antibody production [1] | anti-OVA-specific IgG2a subclass antibody production [2]
1 | CCCCCCCCCCCCCCCC(=O)N[C@@H](CCCNC(=N)N)C(=O)NCCCCCCCCCCCC.Cl [SZ111, N-[(1S)-1-(dodecylcarbamoyl)-4-guanidino-butyl]hexadecanamide hydrochloride] | significantly increased | significantly increased
2 | CCCCCCCCCCCCCCCCCCCCCC(=O)N[C@@H](CCCNC(=N)N)C(=O)NCCCCCCCCCCCC.Cl [SZ138, N-[(1S)-1-(dodecylcarbamoyl)-4-guanidino-butyl]docosanamide hydrochloride] | showed a tendency to increase | showed a tendency to increase
3 | CCCCCCCCCCCCCCCCCCCCCC(=O)N[C@@H](CC(C)C)C(=O)NCCCCCCCCCCC [SZ142, N-[(1S)-3-methyl-1-(undecylcarbamoyl)butyl]docosanamide] | showed a tendency to increase | showed a tendency to increase
4 | CCCCCCCCCCCCCCCC(=O)N[C@@H](CC(C)C)C(=O)NCCCCCCCCCCCC [SZ144, N-[(1S)-1-(dodecylcarbamoyl)-3-methyl-butyl]hexadecanamide] | showed a tendency to increase | showed a tendency to increase
5 | CCCCCCCCCCCCCCCCCCCCCC(=O)N[C@@H](C)C(=O)NCCCCCCCCCCCC [SZ145, N-[(1S)-2-(dodecylamino)-1-methyl-2-oxo-ethyl]docosanamide] | showed a tendency to increase | showed a tendency to increase
6 | CCCCCCCCCCCCCCCCCCCCCC(=O)NC(C)(C)C(=O)NCCCCCCCCCCCC [SZ146, N-[2-(dodecylamino)-1,1-dimethyl-2-oxo-ethyl]docosanamide] | showed a tendency to increase | showed a tendency to increase
7 | CCCCCCCCCCCCCCCCCCCCCC(=O)NCCC(=O)NCCCCCCCCCCCC [SZ147, N-[3-(dodecylamino)-3-oxo-propyl]docosanamide] | showed a tendency to increase | showed a tendency to increase
8 | CCCCCCCCCCCCCCCCCCCCCC(=O)NCC(C)(C)C(=O)NCCCCCCCCCCCC [SZ148, N-[3-(dodecylamino)-2,2-dimethyl-3-oxo-propyl]docosanamide] | showed a tendency to increase | showed a tendency to increase
9 | CCCCCCCCCCCCCCCCOC(=O)N[C@@H](CCCNC(=N)N)C(=O)NCCCCCCCCCCCC.Cl [SZ150, Hexadecyl N-[(1S)-1-(dodecylcarbamoyl)-4-guanidino-butyl]carbamate hydrochloride] | significantly increased | significantly increased
10 | CCCCCCCCCCCCCCCC(=O)N[C@@H](CCCCN)C(=O)NCCCCCCCCCCCC.Cl [SZ153, N-[(1S)-5-amino-1-(dodecylcarbamoyl)pentyl]hexadecanamide hydrochloride] | significantly increased | significantly increased
11 | CCCCCCCCCCCCCCCCCC(=O)N[C@@H](CCCCNC(=N)N)C(=O)NCCCCCC.Cl [SZ206, N-[(1S)-1-(hexylcarbamoyl)-5-guanidino-pentyl]octadecanamide hydrochloride] | – | significant enhancement
